Test results as given in ChEMBL document CHEMBL1833830, “1-[2-(2-Benzoyl- and 2-benzylphenoxy)ethyl]uracils as potent anti-HIV-1 agents” (Bioorg Med Chem, 2011).
In brackets after ≈: the same amount, converted by molar mass. Activity calls are given as the source filed them. The calls are words filed in the database; no cut-off is given here.

Legend:
[1] = Selectivity index, ratio of CC50 for human CEM cells to EC50 for HIV1 3B; format: toxicity, cell-based, CCRF-CEM; conditions: read-out: Ratio CC50/EC50
[2] = test system: Vesicular stomatitis virus; test: Antiviral activity against Vesicular stomatitis virus assessed as inhibition of viral replication; format: functional, organism-based
[3] = test system: Human respirovirus 3; test: Antiviral activity against Parainfluenza 3 virus assessed as inhibition of viral replication; format: functional, organism-based
[4] = Solubility of the compound in 10% DMSO after overnight incubation by UV spectrometric analysis; format: physicochemical
[5] = target: Human immunodeficiency virus type 1 reverse transcriptase (Human immunodeficiency virus 1, UniProt Q72547); test: Inhibition of RNA-dependent DNA polymerase activity of HIV1 reverse transcriptase p66/p51 heterodimer using [8-3H]dGTP as substrate after 30 mins by liquid scintillation counting
[6] = Cytotoxicity against human CEM cells after 4 days by MTT assay; format: cell-based; conditions: CEM cells (CCRF-CEM)
[7] = test system: Human immunodeficiency virus 2; test: Antiviral activity against Human immunodeficiency virus type 2 ROD infected in human CEM cells assessed as inhibition of virus-induced giant cell formation after 4 days by microscopic analysis; format: functional, organism-based; conditions: ISOLATE ROD, CCRF-CEM
[8] = test system: Coxsackievirus B4; test: Antiviral activity against Coxsackievirus B4 assessed as inhibition of viral replication; format: functional, organism-based
[9] = test system: Rift Valley fever virus; test: Antiviral activity against Rift Valley fever virus assessed as inhibition of viral replication; format: functional, organism-based
[10] = test system: Human alphaherpesvirus 2; test: Antiviral activity against HSV-2 assessed as inhibition of viral replication; format: functional, organism-based
[11] = test system: Human immunodeficiency virus 2; test: Antiviral activity against Human immunodeficiency virus type 2 ROD infected in human MT4 cells assessed as inhibition of virus-induced cytopathic effect after 4 days by MTT assay; format: functional, organism-based; conditions: ISOLATE ROD
[12] = test system: Human immunodeficiency virus 1; format: functional, organism-based; conditions: Human immunodeficiency virus 1, 3B, CCRF-CEM, 96 h
[13] = test system: West Nile virus; test: Antiviral activity against West Nile virus assessed as inhibition of viral replication; format: functional, organism-based
[14] = test system: Human immunodeficiency virus 1; test: Antiviral activity against HIV1 3B infected in human CEM cells assessed as inhibition of virus-induced giant cell formation after 4 days by microscopic analysis; format: functional, organism-based; conditions: Human immunodeficiency virus 1, 3B, CCRF-CEM, 96 h
[15] = Solubility of the compound in 0.1% DMSO after overnight incubation by UV spectrometric analysis; format: physicochemical
[16] = test system: Sindbis virus; test: Antiviral activity against Sindbis virus assessed as inhibition of viral replication; format: functional, organism-based
[17] = test system: Mammalian orthoreovirus 1; test: Antiviral activity against Reovirus 1 assessed as inhibition of viral replication; format: functional, organism-based
[18] = test system: Feline coronavirus; test: Antiviral activity against Feline coronavirus assessed as inhibition of viral replication; format: functional, organism-based
[19] = test system: Human alphaherpesvirus 1; test: Antiviral activity against HSV1 assessed as inhibition of viral replication; format: functional, organism-based
[20] = test system: Punta Toro virus; test: Antiviral activity against Punta Toro virus assessed as inhibition of viral replication; format: functional, organism-based
[21] = test system: Dengue virus; test: Antiviral activity against Dengue virus assessed as inhibition of viral replication; format: functional, organism-based
[22] = test system: Respiratory syncytial virus; test: Antiviral activity against Respiratory syncytial virus assessed as inhibition of viral replication; format: functional, organism-based
[23] = test system: Yellow fever virus; test: Antiviral activity against Yellow fever virus assessed as inhibition of viral replication; format: functional, organism-based
[24] = test system: Vaccinia virus; test: Antiviral activity against Vaccinia virus assessed as inhibition of viral replication; format: functional, organism-based; conditions: Orthopoxvirus vaccinia
[25] = Inhibition of DNA-dependent DNA polymerase activity of HIV1 reverse transcriptase p66/p66 homodimer using activated DNA and [alpha-32P]dATP after 30 mins by liquid scintillation counting; parameters: species or system Human immunodeficiency virus 1
[26] = in vitro; conditions: human, MT4 cells
[27] = test system: Human immunodeficiency virus 1
[28] = Inhibition of DNA-dependent DNA polymerase activity of HIV1 reverse transcriptase p66/p66 homodimer Y188L mutant using activated DNA and [alpha-32P]dATP after 30 mins by liquid scintillation counting; parameters: species or system Human immunodeficiency virus 1
[29] = test system: Human immunodeficiency virus 1; test: microbe, parasite or virus in culture; conditions: Human immunodeficiency virus 1, 3B, MT4, 96 h
[30] = test system: Human immunodeficiency virus 1; test: Ratio of Ki for HIV1 RT p66/p66 homodimer G190A mutant to Ki for wild-type HIV1 RT p66/p66 homodimer
[31] = Inhibition of DNA-dependent DNA polymerase activity of HIV1 reverse transcriptase p66/p66 homodimer G190A mutant using activated DNA and [alpha-32P]dATP after 30 mins by liquid scintillation counting; parameters: species or system Human immunodeficiency virus 1
[32] = test system: Human immunodeficiency virus 1; format: functional, organism-based; conditions: Human immunodeficiency virus 1, 3B, MT4, 96 h
[33] = test system: Human immunodeficiency virus 1; test: Ratio of Ki for HIV1 RT p66/p66 homodimer K103N mutant to Ki for wild-type HIV1 RT p66/p66 homodimer
[34] = Cytotoxicity against human MT4 cells after 4 days by MTT assay; format: cell-based
[35] = test system: Human immunodeficiency virus 1; test: Ratio of Ki for HIV1 RT p66/p66 homodimer Y188L mutant to Ki for wild-type HIV1 RT p66/p66 homodimer
[36] = in vitro; conditions: human, MT4 cells; remark: listed apart in the source
[37] = Inhibition of DNA-dependent DNA polymerase activity of HIV1 reverse transcriptase p66/p66 homodimer L100I mutant using activated DNA and [alpha-32P]dATP after 30 mins by liquid scintillation counting; parameters: species or system Human immunodeficiency virus 1
[38] = test system: Human immunodeficiency virus 1; remark: listed apart in the source
[39] = Inhibition of DNA-dependent DNA polymerase activity of HIV1 reverse transcriptase p66/p66 homodimer V106A mutant using activated DNA and [alpha-32P]dATP after 30 mins by liquid scintillation counting; parameters: species or system Human immunodeficiency virus 1
[40] = target: Human immunodeficiency virus type 1 reverse transcriptase (Human immunodeficiency virus 1, UniProt Q72547, K103N)
[41] = test system: Human immunodeficiency virus 1; test: Ratio of Ki for HIV1 RT p66/p66 homodimer L100I mutant to Ki for wild-type HIV1 RT p66/p66 homodimer
[42] = test system: Human immunodeficiency virus 1; test: Inhibition of DNA-dependent DNA polymerase activity of HIV1 reverse transcriptase p66/p66 homodimer using activated DNA and [alpha-32P]dATP after 30 mins by liquid scintillation counting in presence of heparin

| Compound | Activity [2] | Activity [3] | solubility [4] [µM] | Ki [5] [nM] | Activity [7] | Activity [8] | Activity [9] | Activity [10] | Activity [11] | Activity [13] | solubility [15] [µM] | Activity [16] | Activity [17] | Activity [18] | Activity [19] | Activity [20] | Activity [21] | Activity [22] | Activity [23] | Activity [24] | also measured |
| --- | --- | --- | --- | --- | --- | --- | --- | --- | --- | --- | --- | --- | --- | --- | --- | --- | --- | --- | --- | --- | --- |
| Cc1cc(C)cc(Cc2cc(Cl)ccc2OCCn2ccc(=O)[nH]c2=O)c1 | inactive | inactive | 1.7 (≈ 0.654 µg/mL) | 2100 | inactive | inactive | inactive | inactive | inactive | inactive | 0.9 (≈ 0.346 µg/mL) | inactive | inactive | inactive | inactive | inactive | inactive | inactive | inactive | inactive | selectivity ratio [1]: > 909; CC50 at 96 h [6]: > 200 µM; EC50 [12]: > 200 µM; EC50 [14]: 220 nM; Ki [25]: 5 µM |
| O=C(c1cc(Cl)cc(Cl)c1)c1cc(Cl)ccc1OCCn1ccc(=O)[nH]c1=O | inactive | inactive | 9.4 (≈ 4.13 µg/mL) | 820 | inactive | inactive | inactive | inactive | inactive | inactive | 1.9 (≈ 0.835 µg/mL) | inactive | inactive | inactive | inactive | inactive | inactive | inactive | inactive | inactive | selectivity ratio [26]: > 251; Ratio Ki [27]: 2; Ki [28]: 8.4 µM; EC50 [29]: 18 nM; Ratio Ki [30]: 2.3; Ki [31]: 1600 nM; EC50 [32]: 1130 nM; Ratio Ki [33]: 8; CC50 at 96 h [34]: > 284 µM; Ratio Ki [35]: 12; selectivity ratio [36]: > 15800; Ki [37]: 1800 nM; Ratio Ki [38]: 14.9; Ki [39]: > 1.2 mM; Ki [40]: 5.6 µM; Ki [25]: 0.68 µM; Ratio Ki [41]: 2.5 |
| Cc1cc(C)cc(Cc2cc(C)ccc2OCCn2ccc(=O)[nH]c2=O)c1 | inactive | inactive | 184 (≈ 67.2 µg/mL) | 2700 | inactive | inactive | inactive | inactive | inactive | inactive | 44.4 (≈ 16.2 µg/mL) | inactive | inactive | inactive | inactive | inactive | inactive | inactive | inactive | inactive | selectivity ratio [1]: 507; CC50 at 96 h [6]: 66 µM; EC50 [14]: 130 nM; inhibition [42]: Active; Ki [25]: 5.9 µM |
